The test system of this assay is rSmPK1 (recombinant SmPK1). Nature of the assay: […],4-dinitrophenylhydrazine pyruvate assay, Michaelis-Menten / Lineweaver-Burk. The format is biochemical, Spirometra mansoni. Conditions: pH 8.0, 37 °C.

For two compounds, Km results are on record in publication PMC12510601, “Transcriptomic analysis reveals that pyruvate kinase potentially plays a key role in the differentiation of Spirometra mansoni proglottids by regulating the glycolysis pathway” (PLOS Neglected Tropical Diseases, 2025).

For orientation: Km means the substrate concentration at which the rate is half of its maximum.

In the case of `Nc1ncnc2c1ncn2[C@@H]1O[C@H](COP(=O)(O)OP(=O)(O)O)[C@@H](O)[C@H]1O` [ADP], the Km (varied ADP with PEP) was determined as 540 µM.

For the compound `C=C(OP(=O)(O)O)C(=O)O` [PEP], the Michaelis constant (Km) (varied PEP with ADP) was 1270 µM.
